Counter-ions that a name gives are not always drawn.
What follows are compounds tested against T1, human V1a receptor (Homo sapiens, UniProt P37288) (assay: human V1a receptor binding studies (3H-Vasopressin SPA, membranes of transfected HEK293 cells)). Conditions: 3H-Vasopressin displacement, HEK293 cell membranes, SPA beads, 1 h at room temperature, Ki by Cheng-Prussoff from IC50, read-out: pKi (hV1a) (converted).
T1 construct: expressed in transfected cells; host or cells: HEK293 cells, transiently transfected; membranes
T1 sequence (P37288 whole entry): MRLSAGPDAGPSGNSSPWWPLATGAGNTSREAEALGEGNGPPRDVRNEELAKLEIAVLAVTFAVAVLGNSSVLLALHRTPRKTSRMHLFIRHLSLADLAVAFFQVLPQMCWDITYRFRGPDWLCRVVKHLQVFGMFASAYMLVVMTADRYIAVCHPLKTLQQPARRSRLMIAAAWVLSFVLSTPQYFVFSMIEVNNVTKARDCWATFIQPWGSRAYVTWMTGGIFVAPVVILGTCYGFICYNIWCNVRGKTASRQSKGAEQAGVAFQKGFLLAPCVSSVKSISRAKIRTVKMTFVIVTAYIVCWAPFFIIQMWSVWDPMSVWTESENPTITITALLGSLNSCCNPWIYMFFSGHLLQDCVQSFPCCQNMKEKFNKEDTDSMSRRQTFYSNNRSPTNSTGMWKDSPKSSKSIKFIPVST
Method: The human V1a receptor was cloned by RT-PCR from total human liver RNA. The coding sequence was subcloned in an expression vector after sequencing to confirm the identity of the amplified sequence. […] Cell membranes were prepared from HEK293-cells transiently transfected with the expression vector and grown in 20 liter fermenters with the following protocol.
50 g of cells are resuspended in 30 ml freshly prepared ice cold Lysis buffer (50 mM HEPES, 1 mM EDTA, 10 mM magnesium dichloride adjusted to pH=7.4+ complete cocktail of protease inhibitor (Roche Diagnostics)). Homogenized with Polytron for 1 min and sonicated on ice for 2×2 minutes at 80% intensity (Vibracell sonicator). The preparation is centrifuged 20 min at 500 g at 4° C., the pellet is discarded and the supernatant centrifuged 1 hour at 43,000 g at 4° C. (19,000 rpm). The pellet is resuspended in 12.5 ml Lysis buffer+12.5 ml sucrose 20% and homogenized using a Polytron for 1-2 min. The protein concentration is determined by the Bradford method and aliquots are stored at −80° C. until use. For binding studies 60 mg Yttrium silicate SPA beads (Amersham®) are mixed with an aliquot of membrane in binding buffer (50 mM Tris, 120 mM sodium chloride, 5 mM potassium chloride, 2 mM calcium dichloride, 10 mM magnesium dichloride) for 15 minutes with mixing. 50 μl of bead/membrane mixture is then added to each well of a 96 well plate, followed by 50 μl of 4 nM 3H-Vasopressin (American Radiolabeled Chemicals). For total binding measurement 100 μl of binding buffer are added to the respective wells, for non-specific binding 100 μl of 8.4 mM cold vasopressin and for compound testing 100 μl of a serial dilution of each compound in 2% dimethyl sulfoxide. The plate is incubated 1 h at room temperature, centrifuged 1 min at 1000 g and counted on a Packard Top-Count. Non-specific binding counts are subtracted from each well and data is normalized to the maximum specific binding set at 100%. To calculate an IC50 the curve is fitted using a non-linear regression model (XLfit) and the Ki is calculated using the Cheng-Prussoff equation.

Row | Compound | Ki
1 | Clc1ccc2c(c1)CNCc1nnc(C3CC=C(c4ccccc4)CC3)n1-2 (racemic) [Example 1, (RS)-8-Chloro-1-(4-phenyl-cyclohex-3-enyl)-5,6-dihydro-4H-2,3,5,10b-tetraaza-benzo[e]azulene hydrochloride] | 10 nM
2 | Cc1ccccc1C1=CCC(c2nnc3n2-c2ccc(Cl)cc2CNC3)CC1 (racemic) [Example 3, (RS)-8-Chloro-1-(4-o-tolyl-cyclohex-3-enyl)-5,6-dihydro-4H-2,3,5,10b-tetraaza-benzo[e]azulene hydrochloride] | 5.13 nM
3 | Cc1ccccc1C1=CCC(c2nnc3n2-c2ccc(Cl)cc2CN(C)C3)CC1 (racemic) [Example 4, (RS)-8-Chloro-5-methyl-1-(4-o-tolyl-cyclohex-3-enyl)-5,6-dihydro-4H-2,3,5,10b-tetraaza-benzo[e]azulene] | 2.09 nM
4 | CC(C)(C)OC(=O)N1Cc2cc(Cl)ccc2-n2c(nnc2C2CC=C(c3ccc(F)cc3)CC2)C1 (racemic) [Example 5, (RS)-8-Chloro-1-[4-(4-fluoro-phenyl)-cyclohex-3-enyl]-4H,6H-2,3,5,10b-tetraaza-benzo[e]azulene-5-carboxylic acid tert-butyl ester] | 8.32 nM
5 | Fc1ccc(C2=CCC(c3nnc4n3-c3ccc(Cl)cc3CNC4)CC2)cc1 (racemic) [Example 6, (RS)-8-Chloro-1-[4-(4-fluoro-phenyl)-cyclohex-3-enyl]-5,6-dihydro-4H-2,3,5,10b-tetraaza-benzo[e]azulene hydrochloride] | 29.5 nM
6 | CN1Cc2cc(Cl)ccc2-n2c(nnc2C2CC=C(c3ccc(F)cc3)CC2)C1 (racemic) [Example 7, (RS)-8-Chloro-1-[4-(4-fluoro-phenyl)-cyclohex-3-enyl]-5-methyl-5,6-dihydro-4H-2,3,5,10b-tetraaza-benzo[e]azulene] | 6.76 nM
7 | CC(C)(C)OC(=O)N1Cc2cc(Cl)ccc2-n2c(nnc2C2CC=C(c3cccc(OC(F)(F)F)c3)CC2)C1 (racemic) [Example 8, (RS)-8-Chloro-1-[4-(3-trifluoromethoxy-phenyl)-cyclohex-3-enyl]-4H,6H-2,3,5,10b-tetraaza-benzo[e]azulene-5-carboxylic acid tert-butyl ester] | 72.4 nM
8 | FC(F)(F)Oc1cccc(C2=CCC(c3nnc4n3-c3ccc(Cl)cc3CNC4)CC2)c1 (racemic) [Example 9, (RS)-8-Chloro-1-[4-(3-trifluoromethoxy-phenyl)-cyclohex-3-enyl]-5,6-dihydro-4H-2,3,5,10b-tetraaza-benzo[e]azulene hydrochloride] | 331 nM
9 | CN1Cc2cc(Cl)ccc2-n2c(nnc2C2CC=C(c3cccc(OC(F)(F)F)c3)CC2)C1 (racemic) [Example 10, (RS)-8-Chloro-5-methyl-1-[4-(3-trifluoromethoxy-phenyl)-cyclohex-3-enyl]-5,6-dihydro-4H-2,3,5,10b-tetraaza-benzo[e]azulene] | 58.9 nM
10 | CC(C)(C)OC(=O)N1Cc2cc(Cl)ccc2-n2c(nnc2C2CC=C(c3cccc(F)c3Cl)CC2)C1 (racemic) [Example 11, (RS)-8-Chloro-1-[4-(2-chloro-3-fluoro-phenyl)-cyclohex-3-enyl]-4H,6H-2,3,5,10b-tetraaza-benzo[e]azulene-5-carboxylic acid tert-butyl ester] | 8.13 nM
11 | Fc1cccc(C2=CCC(c3nnc4n3-c3ccc(Cl)cc3CNC4)CC2)c1Cl (racemic) [Example 12, (RS)-8-Chloro-1-[4-(2-chloro-3-fluoro-phenyl)-cyclohex-3-enyl]-5,6-dihydro-4H-2,3,5,10b-tetraaza-benzo[e]azulene hydrochloride] | 28.8 nM
12 | CN1Cc2cc(Cl)ccc2-n2c(nnc2C2CC=C(c3cccc(F)c3Cl)CC2)C1 (racemic) [Example 13, (RS)-8-Chloro-1-[4-(2-chloro-3-fluoro-phenyl)-cyclohex-3-enyl]-5-methyl-5,6-dihydro-4H-2,3,5,10b-tetraaza-benzo[e]azulene] | 5.75 nM
13 | CC(C)(C)OC(=O)N1Cc2cc(Cl)ccc2-n2c(nnc2C2CC=C(c3cccc4ccccc34)CC2)C1 (racemic) [Example 14, (RS)-8-Chloro-1-(4-naphthalen-1-yl-cyclohex-3-enyl)-4H,6H-2,3,5,10b-tetraaza-benzo[e]azulene-5-carboxylic acid tert-butyl ester] | 11 nM
14 | Clc1ccc2c(c1)CNCc1nnc(C3CC=C(c4cccc5ccccc45)CC3)n1-2 (racemic) [Example 15, (RS)-8-Chloro-1-(4-naphthalen-1-yl-cyclohex-3-enyl)-5,6-dihydro-4H-2,3,5,10b-tetraaza-benzo[e]azulene hydrochloride] | 112 nM
15 | CN1Cc2cc(Cl)ccc2-n2c(nnc2C2CC=C(c3cccc4ccccc34)CC2)C1 (racemic) [Example 16, (RS)-8-Chloro-5-methyl-1-(4-naphthalen-1-yl-cyclohex-3-enyl)-5,6-dihydro-4H-2,3,5,10b-tetraaza-benzo[e]azulene] | 19.1 nM
16 | COc1ccc(F)cc1C1=CCC(c2nnc3n2-c2ccc(Cl)cc2CN(C(=O)OC(C)(C)C)C3)CC1 (racemic) [Example 17, (RS)-8-Chloro-1-[4-(5-fluoro-2-methoxy-phenyl)-cyclohex-3-enyl]-4H,6H-2,3,5,10b-tetraaza-benzo[e]azulene-5-carboxylic acid tert-butyl ester] | 20.4 nM
17 | COc1ccc(F)cc1C1=CCC(c2nnc3n2-c2ccc(Cl)cc2CNC3)CC1 (racemic) [Example 18, (RS)-8-Chloro-1-[4-(5-fluoro-2-methoxy-phenyl)-cyclohex-3-enyl]-5,6-dihydro-4H-2,3,5,10b-tetraaza-benzo[e]azulene hydrochloride] | 97.7 nM
18 | COc1ccc(F)cc1C1=CCC(c2nnc3n2-c2ccc(Cl)cc2CN(C)C3)CC1 (racemic) [Example 19, (RS)-8-Chloro-1-[4-(5-fluoro-2-methoxy-phenyl)-cyclohex-3-enyl]-5-methyl-5,6-dihydro-4H-2,3,5,10b-tetraaza-benzo[e]azulene] | 10 nM
19 | CC(C)(C)OC(=O)N1Cc2cc(Cl)ccc2-n2c(nnc2C2CC=C(c3cccc(C#N)c3)CC2)C1 (racemic) [Example 20, (RS)-8-Chloro-1-[4-(3-cyano-phenyl)-cyclohex-3-enyl]-4H,6H-2,3,5,10b-tetraaza-benzo[e]azulene-5-carboxylic acid tert-butyl ester] | 46.8 nM
20 | N#Cc1cccc(C2=CCC(c3nnc4n3-c3ccc(Cl)cc3CNC4)CC2)c1 (racemic) [Example 21, (RS)-3-[4-(8-Chloro-5,6-dihydro-4H-2,3,5,10b-tetraaza-benzo[e]azulen-1-yl)-cyclohex-1-enyl]benzonitrile hydrochloride] | 427 nM
21 | CN1Cc2cc(Cl)ccc2-n2c(nnc2C2CC=C(c3cccc(C#N)c3)CC2)C1 (racemic) [Example 22, (RS)-3-[4-(8-Chloro-5-methyl-5,6-dihydro-4H-2,3,5,10b-tetraaza-benzo[e]azulen-1-yl)-cyclohex-1-enyl]benzonitrile] | 56.2 nM
22 | CC(C)(C)OC(=O)N1Cc2cc(Cl)ccc2-n2c(nnc2C2CC=C(c3cc(F)ccn3)CC2)C1 (racemic) [Example 25, (RS)-8-Chloro-1-[4-(4-fluoro-pyridin-2-yl)-cyclohex-3-enyl]-4H,6H-2,3,5,10b-tetraaza-benzo[e]azulene-5-carboxylic acid tert-butyl ester] | 4.68 nM
23 | Fc1ccnc(C2=CCC(c3nnc4n3-c3ccc(Cl)cc3CNC4)CC2)c1 (racemic) [Example 26, (RS)-8-Chloro-1-[4-(4-fluoro-pyridin-2-yl)-cyclohex-3-enyl]-5,6-dihydro-4H-2,3,5,10b-tetraaza-benzo[e]azulene] | 110 nM
24 | CN1Cc2cc(Cl)ccc2-n2c(nnc2C2CC=C(c3cc(F)ccn3)CC2)C1 (racemic) [Example 27, (RS)-8-Chloro-1-[4-(4-fluoro-pyridin-2-yl)-cyclohex-3-enyl]-5-methyl-5,6-dihydro-4H-2,3,5,10b-tetraaza-benzo[e]azulene] | 10.5 nM
25 | Cc1nc(C2=CCC(c3nnc4n3-c3ccc(Cl)cc3CN(C(=O)OC(C)(C)C)C4)CC2)cs1 (racemic) [Example 34, (RS)-8-Chloro-1-[4-(2-methyl-thiazol-4-yl)-cyclohex-3-enyl]-4H,6H-2,3,5,10b-tetraaza-benzo[e]azulene-5-carboxylic acid tert-butyl ester] | 3.72 nM

Same assay, conditions: pKi (hV1a), 3H-Vasopressin displacement, HEK293 cell membranes, SPA beads, 1 h at room temperature, Ki by Cheng-Prussoff from IC50

Row | Compound | Ki
26 | CN1Cc2cc(Cl)ccc2-n2c(nnc2C2CC=C(c3ccccc3)CC2)C1 (racemic) [Example 2, (RS)-8-Chloro-5-methyl-1-(4-phenyl-cyclohex-3-enyl)-5,6-dihydro-4H-2,3,5,10b-tetraaza-benzo[e]azulene] | 2.69 nM
